From patent US6852673B2, “Herbicidal pyridine compounds” (BASF Aktiengesellschaft, priority 1998, dated 2005)

Experiments:
Format in all cases: in vivo
Glycine max (GLXMA) [1] = assay: Pre-emergence herbicidal evaluation, soyabeans
Method in brief: (§1)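 Seeds are mixed into potting soil and planted; the pots are sprayed with aqueous acetone containing compound (about 0.0125 to 0.4 kg/ha equivalent); they are kept and watered in a greenhouse; each pot is rated at 2 to 4 weeks.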

Solanum nigrum (SOLNI) [2] = assay: Post-emergence herbicidal evaluation, black nightshade; conditions: rated 2 to 4 weeks after treatment
Method in brief: (§2)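 Post-emergence spray of test compound, from acetone solutions diluted in water, at about 0.03 to 0.4 kg/ha per pot, plants then kept under standard greenhouse conditions. Injury rated 2 to 4 weeks after treatment on a 0 (as untreated) to 9 (death) scale.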

Galium aparine (GALAP) = assay: Pre-emergence herbicidal evaluation, cleaver
Method in brief: as §1

[3] = tested on: Ambrosia artemiisifolia (AMBEL); assay: Post-emergence herbicidal evaluation, ragweed; conditions: rated 2 to 4 weeks after treatment
Method in brief: as §2

[4] = tested on: Alopecurus myosuroides (ALOMY); assay: Pre-emergence herbicidal evaluation, black grass
Method in brief: as §1

[5] = tested on: Abutilon theophrasti (ABUTH); assay: Post-emergence herbicidal evaluation, velvetleaf; conditions: rated 2 to 4 weeks after treatment
Method in brief: as §2

[6] = tested on: Alopecurus myosuroides (ALOMY); assay: Post-emergence herbicidal evaluation, black grass; conditions: rated 2 to 4 weeks after treatment
Method in brief: as §2

[7] = tested on: Digitaria sanguinalis (DIGSA); assay: Post-emergence herbicidal evaluation, large crabgrass; conditions: rated 2 to 4 weeks after treatment
Method in brief: as §2

Lamium purpureum (LAMPU) [8] = assay: Pre-emergence herbicidal evaluation, purple deadnettle
Method in brief: as §1

Hordeum vulgare (HORVW) [9] = assay: Post-emergence herbicidal evaluation, winter barley; conditions: rated 2 to 4 weeks after treatment
Method in brief: as §2

[10] = tested on: Triticum aestivum (TRZAW); assay: Post-emergence herbicidal evaluation, winter wheat; conditions: rated 2 to 4 weeks after treatment
Method in brief: as §2

Setaria viridis (SETVI) = assay: Pre-emergence herbicidal evaluation, green foxtail
Method in brief: as §1

[11] = tested on: Echinochloa grus galli (ECHCG); assay: Post-emergence herbicidal evaluation, barnyard grass; conditions: rated 2 to 4 weeks after treatment
Method in brief: as §2

[12] = tested on: Triticum aestivum (TRZAW); assay: Pre-emergence herbicidal evaluation, winter wheat
Method in brief: as §1

Oryza sativum (ORYSA) [13] = assay: Pre-emergence herbicidal evaluation, rice
Method in brief: as §1

Lamium purpureum (LAMPU) [14] = assay: Post-emergence herbicidal evaluation, purple deadnettle; conditions: rated 2 to 4 weeks after treatment
Method in brief: as §2

Oryza sativum (ORYSA) [15] = assay: Post-emergence herbicidal evaluation, rice; conditions: rated 2 to 4 weeks after treatment
Method in brief: as §2

[16] = tested on: Ipomoea hederacea (IPOHE); assay: Post-emergence herbicidal evaluation, morning glory; conditions: rated 2 to 4 weeks after treatment
Method in brief: as §2

[17] = tested on: Echinochloa grus galli (ECHCG); assay: Pre-emergence herbicidal evaluation, barnyard grass
Method in brief: as §1

Glycine max (GLXMA) [18] = assay: Post-emergence herbicidal evaluation, soyabeans; conditions: rated 2 to 4 weeks after treatment
Method in brief: as §2

Hordeum vulgare (HORVW) [19] = assay: Pre-emergence herbicidal evaluation, winter barley
Method in brief: as §1

Zea mays (ZEAMX) [20] = assay: Pre-emergence herbicidal evaluation, maize
Method in brief: as §1

Stellaria media (STEME) = assay: Pre-emergence herbicidal evaluation, chickweed
Method in brief: as §1

Zea mays (ZEAMX) [21] = assay: Post-emergence herbicidal evaluation, maize; conditions: rated 2 to 4 weeks after treatment
Method in brief: as §2

Solanum nigrum (SOLNI) [22] = assay: Pre-emergence herbicidal evaluation, black nightshade
Method in brief: as §1

[23] = tested on: Matricaria inodora (MATIN); assay: Post-emergence herbicidal evaluation, mayweed; conditions: rated 2 to 4 weeks after treatment
Method in brief: as §2

In the case of Cc1cc(OCC(F)(F)C(F)(F)C(F)(F)C(F)F)nc(Oc2cc(C(F)(F)F)nn2C)c1 [Example 8], the GLXMA rating (Glycine max (GLXMA) [1]; dose 0.013 kg/ha) is reported as 0 (0 - No effect), the GLXMA rating (Glycine max (GLXMA) [1]; dose 0.025 kg/ha) is reported as 1 (1 - Trace effect) and the GLXMA rating (Glycine max (GLXMA) [1]; dose 0.1 kg/ha) is reported as 2 (2 - Slight effect). The GLXMA rating (Glycine max (GLXMA) [1]; dose 0.4 kg/ha) was 4 (4 - Injury), the SOLNI rating (Solanum nigrum (SOLNI) [2]; dose 0.03 kg/ha) was 3 (3 - Moderate effect) and the SOLNI rating (Solanum nigrum (SOLNI) [2]; dose 0.1 kg/ha) was 5 (5 - Definite injury). The SOLNI rating (Solanum nigrum (SOLNI) [2]; dose 0.4 kg/ha) was 8 (8 - Approaching complete kill), the GALAP rating (Galium aparine (GALAP); dose 0.013 kg/ha) was 1 (1 - Trace effect) and the GALAP rating (Galium aparine (GALAP); dose 0.025 kg/ha) was 1 (1 - Trace effect). For the same compound, the GALAP rating (Galium aparine (GALAP); dose 0.1 kg/ha) was 6 (6 - Herbicidal effect), the GALAP rating (Galium aparine (GALAP); dose 0.4 kg/ha) was 8 (8 - Approaching complete kill) and the AMBEL rating ([3]; dose 0.03 kg/ha) was 5 (5 - Definite injury). The AMBEL rating ([3]; dose 0.1 kg/ha) was 8 (8 - Approaching complete kill), the AMBEL rating ([3]; dose 0.4 kg/ha) was 8 (8 - Approaching complete kill) and the ALOMY rating ([4]; dose 0.013 kg/ha) was 1 (1 - Trace effect). For the same compound, the ALOMY rating ([4]; dose 0.025 kg/ha) was 1 (1 - Trace effect), the ALOMY rating ([4]; dose 0.1 kg/ha) was 7 (7 - Good herbicidal effect) and the ALOMY rating ([4]; dose 0.4 kg/ha) was 8 (8 - Approaching complete kill). The ABUTH rating ([5]; dose 0.03 kg/ha) was 1 (1 - Trace effect), the ABUTH rating ([5]; dose 0.1 kg/ha) was 5 (5 - Definite injury) and the ABUTH rating ([5]; dose 0.4 kg/ha) was 7 (7 - Good herbicidal effect). The ALOMY rating ([6]; dose 0.03 kg/ha) was 2 (2 - Slight effect), the ALOMY rating ([6]; dose 0.1 kg/ha) was 7 (7 - Good herbicidal effect) and the ALOMY rating ([6]; dose 0.4 kg/ha) was 8 (8 - Approaching complete kill). The DIGSA rating ([7]; dose 0.03 kg/ha) was 8 (8 - Approaching complete kill), the DIGSA rating ([7]; dose 0.1 kg/ha) was 9 (9 - Complete kill) and the DIGSA rating ([7]; dose 0.4 kg/ha) was 9 (9 - Complete kill). For the same compound, the LAMPU rating (Lamium purpureum (LAMPU) [8]; dose 0.013 kg/ha) was 8 (8 - Approaching complete kill), the LAMPU rating (Lamium purpureum (LAMPU) [8]; dose 0.025 kg/ha) was 8 (8 - Approaching complete kill) and the LAMPU rating (Lamium purpureum (LAMPU) [8]; dose 0.1 kg/ha) was 9 (9 - Complete kill). For the same compound, the LAMPU rating (Lamium purpureum (LAMPU) [8]; dose 0.4 kg/ha) was 9 (9 - Complete kill), the HORVW rating (Hordeum vulgare (HORVW) [9]; dose 0.03 kg/ha) was 2 (2 - Slight effect) and the HORVW rating (Hordeum vulgare (HORVW) [9]; dose 0.1 kg/ha) was 3 (3 - Moderate effect). For the same compound, the HORVW rating (Hordeum vulgare (HORVW) [9]; dose 0.4 kg/ha) was 3 (3 - Moderate effect), the TRZAW rating ([10]; dose 0.03 kg/ha) was 2 (2 - Slight effect) and the TRZAW rating ([10]; dose 0.1 kg/ha) was 2 (2 - Slight effect). The TRZAW rating ([10]; dose 0.4 kg/ha) was 3 (3 - Moderate effect), the SETVI rating (Setaria viridis (SETVI); dose 0.013 kg/ha) was 1 (1 - Trace effect) and the SETVI rating (Setaria viridis (SETVI); dose 0.025 kg/ha) was 3 (3 - Moderate effect). The SETVI rating (Setaria viridis (SETVI); dose 0.1 kg/ha) was 9 (9 - Complete kill), the SETVI rating (Setaria viridis (SETVI); dose 0.4 kg/ha) was 9 (9 - Complete kill) and the ECHCG rating ([11]; dose 0.03 kg/ha) was 2 (2 - Slight effect). For the same compound, the ECHCG rating ([11]; dose 0.1 kg/ha) was 5 (5 - Definite injury), the ECHCG rating ([11]; dose 0.4 kg/ha) was 8 (8 - Approaching complete kill) and the TRZAW rating ([12]; dose 0.013 kg/ha) was 0 (0 - No effect). For the same compound, the TRZAW rating ([12]; dose 0.025 kg/ha) was 0 (0 - No effect), the TRZAW rating ([12]; dose 0.1 kg/ha) was 1 (1 - Trace effect) and the TRZAW rating ([12]; dose 0.4 kg/ha) was 3 (3 - Moderate effect). For the same compound, the ORYSA rating (Oryza sativum (ORYSA) [13]; dose 0.013 kg/ha) was 0 (0 - No effect), the ORYSA rating (Oryza sativum (ORYSA) [13]; dose 0.025 kg/ha) was 0 (0 - No effect) and the ORYSA rating (Oryza sativum (ORYSA) [13]; dose 0.1 kg/ha) was 1 (1 - Trace effect). For the same compound, the ORYSA rating (Oryza sativum (ORYSA) [13]; dose 0.4 kg/ha) was 1 (1 - Trace effect), the LAMPU rating (Lamium purpureum (LAMPU) [14]; dose 0.03 kg/ha) was 8 (8 - Approaching complete kill) and the LAMPU rating (Lamium purpureum (LAMPU) [14]; dose 0.1 kg/ha) was 8 (8 - Approaching complete kill). For the same compound, the LAMPU rating (Lamium purpureum (LAMPU) [14]; dose 0.4 kg/ha) was 9 (9 - Complete kill), the ORYSA rating (Oryza sativum (ORYSA) [15]; dose 0.03 kg/ha) was 1 (1 - Trace effect) and the ORYSA rating (Oryza sativum (ORYSA) [15]; dose 0.1 kg/ha) was 2 (2 - Slight effect). The ORYSA rating (Oryza sativum (ORYSA) [15]; dose 0.4 kg/ha) was 2 (2 - Slight effect), the IPOHE rating ([16]; dose 0.03 kg/ha) was 7 (7 - Good herbicidal effect) and the IPOHE rating ([16]; dose 0.1 kg/ha) was 9 (9 - Complete kill). For the same compound, the IPOHE rating ([16]; dose 0.4 kg/ha) was 9 (9 - Complete kill), the ECHCG rating ([17]; dose 0.013 kg/ha) was 1 (1 - Trace effect) and the ECHCG rating ([17]; dose 0.025 kg/ha) was 1 (1 - Trace effect). The ECHCG rating ([17]; dose 0.1 kg/ha) was 6 (6 - Herbicidal effect), the ECHCG rating ([17]; dose 0.4 kg/ha) was 8 (8 - Approaching complete kill) and the GLXMA rating (Glycine max (GLXMA) [18]; dose 0.03 kg/ha) was 5 (5 - Definite injury). The GLXMA rating (Glycine max (GLXMA) [18]; dose 0.1 kg/ha) was 7 (7 - Good herbicidal effect), the GLXMA rating (Glycine max (GLXMA) [18]; dose 0.4 kg/ha) was 8 (8 - Approaching complete kill) and the HORVW rating (Hordeum vulgare (HORVW) [19]; dose 0.013 kg/ha) was 0 (0 - No effect). The HORVW rating (Hordeum vulgare (HORVW) [19]; dose 0.025 kg/ha) was 1 (1 - Trace effect), the HORVW rating (Hordeum vulgare (HORVW) [19]; dose 0.1 kg/ha) was 3 (3 - Moderate effect) and the HORVW rating (Hordeum vulgare (HORVW) [19]; dose 0.4 kg/ha) was 4 (4 - Injury). For the same compound, the selectivity in maize (Zea mays (ZEAMX) [20]) was “good selectivity”, the ZEAMX rating (Zea mays (ZEAMX) [20]; dose 0.013 kg/ha) was 1 (1 - Trace effect) and the ZEAMX rating (Zea mays (ZEAMX) [20]; dose 0.025 kg/ha) was 1 (1 - Trace effect). For the same compound, the ZEAMX rating (Zea mays (ZEAMX) [20]; dose 0.1 kg/ha) was 1 (1 - Trace effect), the ZEAMX rating (Zea mays (ZEAMX) [20]; dose 0.4 kg/ha) was 2 (2 - Slight effect) and the STEME rating (Stellaria media (STEME); dose 0.013 kg/ha) was 1 (1 - Trace effect). The STEME rating (Stellaria media (STEME); dose 0.025 kg/ha) was 4 (4 - Injury), the STEME rating (Stellaria media (STEME); dose 0.1 kg/ha) was 9 (9 - Complete kill) and the STEME rating (Stellaria media (STEME); dose 0.4 kg/ha) was 9 (9 - Complete kill). The ZEAMX rating (Zea mays (ZEAMX) [21]; dose 0.03 kg/ha) was 1 (1 - Trace effect), the ZEAMX rating (Zea mays (ZEAMX) [21]; dose 0.1 kg/ha) was 1 (1 - Trace effect) and the ZEAMX rating (Zea mays (ZEAMX) [21]; dose 0.4 kg/ha) was 3 (3 - Moderate effect). For the same compound, the SOLNI rating (Solanum nigrum (SOLNI) [22]; dose 0.013 kg/ha) was 1 (1 - Trace effect), the SOLNI rating (Solanum nigrum (SOLNI) [22]; dose 0.025 kg/ha) was 3 (3 - Moderate effect) and the SOLNI rating (Solanum nigrum (SOLNI) [22]; dose 0.1 kg/ha) was 8 (8 - Approaching complete kill). For the same compound, the SOLNI rating (Solanum nigrum (SOLNI) [22]; dose 0.4 kg/ha) was 8 (8 - Approaching complete kill), the MATIN rating ([23]; dose 0.03 kg/ha) was 9 (9 - Complete kill) and the MATIN rating ([23]; dose 0.1 kg/ha) was 9 (9 - Complete kill). The MATIN rating ([23]; dose 0.4 kg/ha) was 9 (9 - Complete kill).
